Where two headings read alike, the source gives them in different places. Where only a bound is given, the exact number is not on record here.

Consider twelve compounds from publication PMC9574050, “Design, synthesis, and insecticidal activity of a novel series of flupyrimin analogs bearing 1-aryl-1H-pyrazol-4-yl subunits” (Frontiers in Chemistry, 2022).

Common to all, as to format: in vivo
One test deals with Plutella xylostella. Kind of test: Insecticidal activity against Plutella xylostella (soaking method). The settings on record: Plutella xylostella, 48 h, read-out: Mortality rate (%) P. xylostella. From the text:
(§1) Preparation of test agent. Dissolve accurately weighed tested compound in DMF to prepare 1% mother liquor, and then dilute it with distilled water containing 0.1% Tween-80 to corresponding concentrations for later use.
Insecticidal activity against Plutella xylostella ([Yang et al., 2021]). The soaking method was adopted. After soaking a proper amount of radish leaves for 10 s, it was placed in a plastic Petri dish with filter paper and dried naturally in the shade. Each dish was inoculated with 10 2nd instar P. xylostella larvae and placed in an observation room at 22°C with light (16/8 h). The result was counted 2 days later, and the no-response insect body when it was lightly touched with a brush was regarded as dead. Each treatment was repeated three times, and DMF without the tested compound was used as a blank control.
(§2) The insecticidal activities of the test compounds against the abovementioned five insects were calculated by the following formula: P1=(K/N)×100, (1) P2=(Pt−P0)/(1−P0)×100, (2) where P1 is the mortality rate; K is the dead insect number; N is the total number of experimental insects; P2 is the corrected mortality rate; Pt is the mortality rate of treatment; P0 is the mortality rate of CK. If the mortality rate of CK is less than 5%, without the required correction, and if the mortality rate of CK is between 5 and 20%, P2 should be calculated according to formula II.

The next test has as its system Nilaparvata lugens. The test can be described thus: Insecticidal activity against Nilaparvata lugens (Potter spray tower). The settings on record: 24 h, read-out: Mortality rate (%) N. lugens.
Source text: as §1
Insecticidal activity against Nilaparvata lugens ([Ghareeb et al., 2021]). The seedlings with two leaves and one heart were placed in a Petri dish with a bottom diameter of 3 cm and covered with white sand. After the 3rd instar nymphae of N. lugens were stunned by CO2, about 15 nymphae were received in each dish, and then 2.5 ml of the tested agent was sprayed with Potter spray tower. The mortality of N. lugens was investigated 1 day after the treatment. Each treatment was repeated three times, and DMF without the tested compound was used as a blank control.
as §2

The test system of the next test is Aphis craccivora. The test can be described thus: Insecticidal activity against Aphis craccivora (Potter spray tower). The following applies: read-out: Mortality rate (%) A. craccivora. As to the method: as §1
Insecticidal activity against Aphis craccivora ([Liu et al., 2022]). About 30 nymphs of alfalfa aphid were placed on a horsebean leaf dish, and then 2.5 ml of the tested agent was sprayed with Potter spray tower. After treatment, they were cultured in an observation room at 20–22°C. The result was counted 24 h later, and the no-response insect body when it was lightly touched with tweezers was regarded as dead. Each treatment was repeated three times, and DMF without the tested compound was used as a blank control.
as §2

The next test concerns Helicoverpa armigera. Kind of test: Insecticidal activity against Helicoverpa armigera (soaking method). The following applies: Helicoverpa armigera, 48 h, read-out: Mortality rate (%) H. armigera.
Source text: as §1
Insecticidal activity against Helicoverpa armigera. The soaking method was adopted ([Yang et al., 2022]). After soaking a proper amount of corn leaves for 10 s, they were placed in a plastic Petri dish with filter paper and dried naturally in the shade. Ten larvae of the 2nd instar H. armigera were attached to each dish and placed in an observation room at 26°C with light (16/8 h). The result was counted 2 days later, and the no-response insect body when it was lightly touched with a brush was regarded as dead. Each treatment was repeated 3 times, and DMF without the tested compound was used as a blank control.
as §2

The next test deals with Chilo suppressalis. Kind of test: Insecticidal activity against Chilo suppressalis (soaking method). The settings on record: 96 h, read-out: Mortality rate (%) C. suppressalis.
Source text: as §1
Insecticidal activity against Chilo suppressalis ([Huang et al., 2022]). The soaking method was adopted. The Zizania latifolia slices were soaked in a tested solution for 10 s, then taken out, and placed in a plastic Petri dish with filter paper to naturally dry in the shade. […] The result was counted 4 days later, and the no-response insect body when it was lightly touched with a brush was regarded as dead. Each treatment was repeated three times, and DMF without the tested compound was used as a blank control.
as §2

[1] abbreviates: 400 μg/mL, 2nd instar larvae, counted 2 days later.
The mark [2] stands for this setting: 400 μg/mL, 3rd instar nymphae, 1 day after treatment.
[3] abbreviates: 400 μg/mL, 3rd instar larvae, counted 4 days later.
Setting [4] is: 25 μg/mL, 2nd instar larvae, counted 2 days later.
[5] abbreviates: 100 μg/mL, 2nd instar larvae, counted 2 days later.

For the compound `CNC(=O)c1cc(Cl)cc(C)c1NC(=O)c1cc(Br)nn1-c1ncccc1Cl` [CAT, chlorantraniliprole, reference compound], the mortality at 25 µg/mL in the test with Plutella xylostella is 100%. For the same compound, the mortality at 100 µg/mL with Plutella xylostella and in the test on Chilo suppressalis was 100% throughout. Also, the mortality at 400 µg/mL in the test on Plutella xylostella came to 100%; in the test with Nilaparvata lugens it was 0%; with Aphis craccivora (24 h), 0%; with Helicoverpa armigera it was 100%; in the test on Chilo suppressalis, 100%.

As to `O=C(/N=c1\ccccn1Cc1cnn(-c2ccccc2)c1C(F)(F)F)C(F)(F)F` [Compound A1, (E)-2,2,2-trifluoro-N-(1-((1-phenyl-5-(trifluoromethyl)-1H-pyrazol-4-yl)methyl)pyridin-2(1H)-ylidene)acetamide], the mortality at 400 µg/mL in the test on Plutella xylostella (setting [1]) came out at 76.7%; in the test on Nilaparvata lugens (setting [2]) it was 0%; in the test on Aphis craccivora (400 μg/mL, counted 24 h later), 0%; in the test on Helicoverpa armigera (setting [1]), 0%; in the test with Chilo suppressalis (setting [3]), 0%.

In the case of `O=C(/N=c1\ccccn1Cc1cnn(-c2cccc(F)c2)c1C(F)(F)F)C(F)(F)F` [Compound A3, (E)-2,2,2-trifluoro-N-(1-((1-(3-fluorophenyl)-5-(trifluoromethyl)-1H-pyrazol-4-yl)methyl)pyridin-2(1H)-ylidene)acetamide], in the test on Plutella xylostella (setting [4]), the mortality at 25 µg/mL is 0%. Also, the mortality at 100 µg/mL in the test on Plutella xylostella (setting [5]) turned out to be 86.7%. Moreover, the mortality at 400 µg/mL in the test on Plutella xylostella (setting [1]) stood at 100%; with Nilaparvata lugens (setting [2]) it was 0%; in the test on Aphis craccivora (400 μg/mL, counted 24 h later) it was 0%; with Helicoverpa armigera (setting [1]), 0%; in the test on Chilo suppressalis (setting [3]) it was 0%.

For the compound `O=C(/N=c1\ccccn1Cc1cnn(-c2ccc(Cl)cc2)c1C(F)(F)F)C(F)(F)F` [Compound A4, (E)-N-(1-((1-(4-chlorophenyl)-5-(trifluoromethyl)-1H-pyrazol-4-yl)methyl)pyridin-2(1H)-ylidene)-2,2,2-trifluoroacetamide], the mortality at 400 µg/mL with Plutella xylostella (setting [1]) turned out to be 0%; in the test with Nilaparvata lugens (setting [2]), 0%; in the test with Aphis craccivora (400 μg/mL, counted 24 h later), 0%; with Helicoverpa armigera (setting [1]) it was 0%; in the test with Chilo suppressalis (setting [3]), 0%.

`O=C(/N=c1\ccccn1Cc1cnn(-c2ccc(C(F)(F)F)cc2)c1C(F)(F)F)C(F)(F)F` [Compound A5, (E)-2,2,2-trifluoro-N-(1-((5-(trifluoromethyl)-1-(4-(trifluoromethyl)phenyl)-1H-pyrazol-4-yl)methyl)pyridin-2(1H)-ylidene)acetamide]: the mortality at 400 µg/mL with Plutella xylostella (setting [1]) is 73.3%; in the test with Nilaparvata lugens (setting [2]), 0%; with Aphis craccivora (400 μg/mL, counted 24 h later) it was 0%; with Helicoverpa armigera (setting [1]) it was 0%; with Chilo suppressalis (setting [3]), 0%.

For the compound `O=C(/N=c1\ccccn1Cc1cnn(-c2cccc(Cl)c2)c1C(F)F)C(F)(F)F` [Compound A6, (E)-N-(1-((1-(3-chlorophenyl)-5-(difluoromethyl)-1H-pyrazol-4-yl)methyl)pyridin-2(1H)-ylidene)-2,2,2-trifluoroacetamide], the mortality at 400 µg/mL in the test on Plutella xylostella (setting [1]) came out at 50%; in the test with Nilaparvata lugens (setting [2]) it was 100%; in the test on Aphis craccivora (400 μg/mL, counted 24 h later) it was 0%; in the test on Helicoverpa armigera (setting [1]), 0%; with Chilo suppressalis (setting [3]) it was 0%. Besides, the mortality at 100 µg/mL in the test on Nilaparvata lugens (100 μg/mL, 3rd instar nymphae, 1 day after treatment) came to 0%.

In the case of `O=C(/N=c1\ccccn1Cc1cnn(-c2cccc(F)c2)c1C(F)F)C(F)(F)F` [Compound A7, (E)-N-(1-((5-(difluoromethyl)-1-(3-fluorophenyl)-1H-pyrazol-4-yl)methyl)pyridin-2(1H)-ylidene)-2,2,2-trifluoroacetamide], the mortality at 400 µg/mL in the test on Plutella xylostella (setting [1]) is 63.3%; in the test with Nilaparvata lugens (setting [2]), 0%; in the test with Aphis craccivora (400 μg/mL, counted 24 h later) it was 0%; in the test with Helicoverpa armigera (setting [1]), 0%; in the test on Chilo suppressalis (setting [3]) it was 0%.

For the compound `O=C(/N=c1\ccccn1Cc1cnn(-c2ccc(F)cc2)c1C(F)F)C(F)(F)F` [Compound A8, (E)-N-(1-((5-(difluoromethyl)-1-(4-fluorophenyl)-1H-pyrazol-4-yl)methyl)pyridin-2(1H)-ylidene)-2,2,2-trifluoroacetamide], the mortality at 400 µg/mL in the test with Plutella xylostella (setting [1]) was found to be 0%; in the test on Nilaparvata lugens (setting [2]), 0%; in the test with Aphis craccivora (400 μg/mL, counted 24 h later), 0%; in the test with Helicoverpa armigera (setting [1]), 0%; with Chilo suppressalis (setting [3]), 0%.

As to `COCC(=O)/N=c1\ccccn1Cc1cnn(-c2ccccc2)c1C(F)(F)F` [Compound B1, (E)-2-methoxy-N-(1-((1-phenyl-5-(trifluoromethyl)-1H-pyrazol-4-yl)methyl)pyridin-2(1H)-ylidene)acetamide], in the test on Plutella xylostella (setting [4]), the mortality at 25 µg/mL was 16.7%. The mortality at 100 µg/mL in the test with Plutella xylostella (setting [5]) amounted to 100%. In addition, the mortality at 400 µg/mL came to 100% in the test on Plutella xylostella (setting [1]); 48.9% with Nilaparvata lugens (setting [2]); 0% in the test on Aphis craccivora (400 μg/mL, counted 24 h later); 0% in the test on Helicoverpa armigera (setting [1]); 0% in the test with Chilo suppressalis (setting [3]).

With `COCC(=O)/N=c1\ccccn1Cc1cnn(-c2ccccc2Cl)c1C(F)(F)F` [Compound B2, (E)-N-(1-((1-(2-chlorophenyl)-5-(trifluoromethyl)-1H-pyrazol-4-yl)methyl)pyridin-2(1H)-ylidene)-2-methoxyacetamide], the mortality at 25 µg/mL in the test with Plutella xylostella (setting [4]) was over 70%. In the test with Plutella xylostella (setting [5]), the mortality at 100 µg/mL was 96.7%. Moreover, the mortality at 400 µg/mL in the test with Plutella xylostella (setting [1]) came out at 100%; with Nilaparvata lugens (setting [2]), 0%; with Aphis craccivora (400 μg/mL, counted 24 h later) it was 0%; in the test on Helicoverpa armigera (setting [1]), 0%; with Chilo suppressalis (setting [3]), 0%.

For `O=C(/N=c1\ccccn1Cc1cnn(-c2ccc(C(F)(F)F)cc2)c1C(F)(F)F)C(F)(F)C(F)(F)F` [Compound C5, (E)-2,2,3,3,3-pentafluoro-N-(1-((5-(trifluoromethyl)-1-(4-(trifluoromethyl)phenyl)-1H-pyrazol-4-yl)methyl)pyridin-2(1H)-ylidene)propanamide], the mortality at 400 µg/mL in the test on Plutella xylostella (setting [1]) amounted to 70%; in the test on Aphis craccivora (400 μg/mL, counted 24 h later), 0%; with Helicoverpa armigera (setting [1]) it was 0%; with Chilo suppressalis (setting [3]), 100%. The mortality at 100 µg/mL in the test on Chilo suppressalis (100 μg/mL, 3rd instar larvae, counted 4 days later) was 0%.

Consider `O=C(/N=c1\ccccn1Cc1cnn(-c2ccc(F)cc2)c1C(F)F)C(F)(F)C(F)(F)F` [Compound C8, (E)-N-(1-((5-(difluoromethyl)-1-(4-fluorophenyl)-1H-pyrazol-4-yl)methyl)pyridin-2(1H)-ylidene)-2,2,3,3,3-pentafluoropropanamide], for which the mortality at 400 µg/mL in the test on Nilaparvata lugens (setting [2]) worked out at 0%; with Aphis craccivora (400 μg/mL, counted 24 h later), 0%; in the test on Helicoverpa armigera (setting [1]), 0%; in the test on Chilo suppressalis (setting [3]), 0%.

As usually defined, the mortality is the share of the test organisms that died.
